Legend:
[1] = tested on: sperm penetration in cervical mucus; assay: Modified One End Test (MOET), sperm penetration in bovine cervical mucus; type: cell-based
Source text: Bovine cervical mucus was obtained from Humagen (Charlottesville, Va.) in the form of prepackaged flat capillary tubes (Penetrak®), kept frozen and thawed right prior to the experiment. The Modified One End Test (MOET) [(described in Doncel G. F., in “Barrier Contraceptives”, Wiley-Liss, Mauck C. K. et al. eds., pp. 147-162 (1994)] was used to determine the effect of compounds, such as suramin sodium described herein, on sperm penetration in cervical mucus. Each of the test compositions containing the compound to be tested were diluted in a saline solution, i.e., at 9 grams of NaCl per liter of water. Tubes of cervical mucus were broken open. The open end was placed in a container containing the test compound in saline. The test compound was allowed to diffuse for 30 minutes through the tube. A semen sample, obtained from normal healthy donors, was then diluted with a buffer solution to 60 million motile sperm per milliliter and mixed with the test compound sample (i.e., suramin sodium). The tube containing the test compound sample was then re-inserted into the container containing the mixed solution and stored in an incubator at 37° C. in an atmosphere of 5 percent carbon dioxide in air for 60 minutes. The container and tube were then removed from the incubator and the tube was visually analyzed under a microscope for the migration of motile vanguard sperm through the tube. The results are expressed as percentage of migration as compared to control samples. In the control samples, the tubes were incubated with saline containing no compound. […]

[2] = tested on: sperm; assay: Sperm progressive motility dose-response and time studies, CASA; type: cell-based, human; conditions: 1-10,000 μg/mL or 5-0.07 mM

| Compound | MOET % CTL ([1]; 30 ug/ml) | blocking of sperm penetration ([1]; 300 μg/mL (0.03%)) | MOET % CTL ([1]; 300 ug/ml) | sperm progressive motility and membrane integrity vs solvent control [2] | MOET % CTL ([1]; 6.25 mg/ml) | MOET % CTL ([1]; 12.5 mg/ml) | MOET % CTL ([1]; 25 mg/ml) | inhibition of sperm penetration in MOET ([1]; 50 mg/mL (5%)) | MOET % CTL ([1]; 50 mg/ml) |
| --- | --- | --- | --- | --- | --- | --- | --- | --- | --- |
| CCCCCCCCCc1ccc(OCCOCCOCCOCCOCCOCCOCCOCCOCCO)cc1 [N-9, α-(4-Nonylphenyl)-ω-hydroxynona(oxyethylene)] | 48.6 ± 6.9 % CTL | completely blocked sperm penetration | 0.7 ± 0.5 % CTL | displayed its known sperm-immobilizing effects |  |  |  |  |  |
| Dextran Sulfate |  |  |  |  | 93.7 ± 1.7 % CTL | 82.4 ± 5.2 % CTL | 86.8 ± 4.4 % CTL | more inhibition than suramin sodium | 56.6 ± 8.9 % CTL |
